Entries after “also recorded” stand apart in the source; their conditions may differ. Counter-ions that a name gives are not always drawn. Like-named read-outs stand apart in the source and are kept apart here.
Experiments:
[1] = Relative stability (non-competitive and competitive interconversion) experiments of crystal forms of Compound 1; details: pXRD, DSC, 1H-NMR
Procedure: For the non-competitive experiments, only a single starting crystal form was used to study the potential conversion to another more stabb form. […] The slurry was cooled to 25-30 °C, filtered, suction dried for 1 hour and dried in a vacuum oven at 70 °C and 8 kPa absolute pressure for 12 hours. […] The slurry was cooled to 25-30 °C, filtered, suction dried for 1 hour and dried in a vacuum oven at 70 °C and 8 kPa absolute pressure for 12 hours. […] The slurry was cooled to 25-30 °C, filtered, suction dried for 1 hour and dried in a vacuum oven at 70 °C and 8 kPa absolute pressure for 12 hours.

[2] = Gravimetric vapour sorption (GVS) of salts of Formula V; format: physicochemical
[3] = Polymorphism assessment of HCl Pattern 2 (heat/cool cycles in solvents, XRPD); format: physicochemical
Source text: . […] Table 18. Results from the polymorph assessment

[4] = VT-XRPD / VH-XRPD / drying stability of HCl salt forms of Formula V; details: for stability of the salt form on drying under vacuum at room temperature: ca. 16 hours, XRPD
Procedure: The humidity was controlled by mixing streams of dry and wet nitrogen, with a total flow rate of 200 mL.min-1 The relative humidity was measured by a calibrated Rotronic probe (dynamic range of 1.0 - 100%RH), located near the sample. The weight change (mass relaxation) of the sample as a function of %RH was constantly monitored by the microbalance (accuracy ±0.005 mg). Approximately 5 - 20 mg of sample was placed in a tared mesh stainless steel basket under ambient conditions. […] A moisture sorption isotherm was performed as outlined below (2 scans giving 1 complete cycle). […] Data analysis was undertaken in Microsoft Excel using DVS Analysis Suite v6.0.0.7. […] XRPD: X-Ray Powder Diffraction patterns were collected either on a Bruker AXS C2 GADDS diffractometer or a Bruker AXS D8 diffractometer. […] The beam divergence, i.e. the effective size of the X-ray beam on the sample, was approximately 4 mm. […] In a typical experiment, the sampleis exposed to the X-ray beam for 120 seconds. The software used for data collectionwas GADDS for WNT 4.1.16 and the data were analyzed and presented using Diffrac PlusEVA vl 1.0.0.2 or vl3.0.0.2. Ambient conditions: Samples run under ambient conditions were prepared as flat plate specimens using powder as received without grinding. Approximately 1 - 2 mg of the sample was lightly pressed on aglass slide to obtain a flat surface. Non-ambient conditions: Samples run under non-ambient conditions were mounted on a silicon wafer with heat-conducting compound. The sample was then heated to the appropriate temperatureat 10.C.min_1and subsequently held isothermally for 1 minute before data collection was initiated. On a Bruker D8 diffractometer, the following parameters were used: Cu Ka radiation (40 kV, 40 mA), θ - 20 goniometer, and divergence of V4 and receiving slits, a Ge monochromator and a Lynxeye detector. […] The software used for data collection was Diffrac Plus XRD Commander v2.5.0 and the data were analyzed and presented using Diffrac Plus EVA vl 1.0.0.2 or vl3.0.0.2. Samples were run under ambient conditions as flat plate specimens using powder as received. The sample was gently packed into a cavity cut into polished, zero-background (510) silicon wafer. The sample was rotated in its own plane during analysis. The details of the data collection are: · Angular range: 2 to 42°2Θ, · Step size: 0.05°2Θ, · Collection time: 0.5 s/step.

[5] = Characterization of scale-up HCl Pattern 2 (Tables 16-17); format: physicochemical; details: for TGA heat / cool experiments: IC / TGA heat / cool experiments: XRPD: cooled and re-analysed; for solubility thermodynamic: thermodynamic from solid
[6] = Salt form assessment of the tosylate salt (chemical stability, disassociation, aqueous solubility); format: physicochemical
[7] = Solid form stability of forms of compound of formula (IV) (Temperature / Humidity Controlled XRPD, storage, suspension); format: physicochemical
Procedure: The term"XRPD" denotes the analytical method of X-Ray Powder Diffraction. XRPD patterns were recorded at ambient conditions in transmission geometry with a STOE STADI P diffractometer (Cu K alpha radiation source, primary monochromator, position sensitive detector, angular range 3° to 42° 2Theta, approximately 60 minutes total measurement time). The repeatability of the angular values is in the range of 2Theta ±0.2°. The term "approximately" given in combination with an angular value denotes the repeatability which is in the range of 2Theta ±0.2°. The samples were prepared and analyzed without further processing (e.g. grinding or sieving) of the substance. The relative XRPD peak intensity is dependent upon many factors such as structure factor, temperature factor, crystallinity, polarization factor, multiplicity, and Lorentz factor. Relative intensities may vary considerably from one measurement to another due to preferred orientation effects. Humidity Controlled XRPD analyses were performed in reflection geometry with a Siemens D5000 Diffractometer (Cu radiation source, Ni K beta filter, Scintillation detector, angular range 3° to 42° 2Theta, approximately 180 minutes total measurement time per humidity level). The diffractometer is equipped with an MRI (Materials Research Instruments) humidity chamber. The humidity within the chamber is adjusted with an ANSYCO humidity controller (SYCOS H-HOT). For single crystal structure analysis a single crystal sample was mounted in a nylon loop on a goniometer and measured at ambient conditions. Alternatively, the crystal was cooled in a nitrogen stream during measurement. Data were collected on a GEMINI R Ultra diffractometer from Oxford Diffraction. Cu-radiation of 1.54 A wavelength was used for data collection. Data was processed with the Oxford Diffraction CRYSALIS software. The crystal structure was solved and refined with standard crystallographic software. In this case the program ShelXTL from Bruker AXS (Karlsruhe) was used. The abbreviation "FWHM" denotes the full width at half maximum, which is a width of a peak (e.g. appearing in a spectrum, particularly in an XRPD pattern) at its half height. The term "sharp Bragg diffraction peak" in connection with X-ray diffraction patterns denotes a peak which is observed if Bragg' s law of diffraction is fulfilled. Generally, the FWHM of a sharp Bragg diffraction peak is less than 0.5° 2-theta. The term "amorphous halo" in connection with X-ray diffraction patterns denotes an approximately bell- shaped diffraction maximum in the X-ray powder diffraction pattern of an amorphous material. The FWHM of an amorphous halo is on principle larger than the FWHM of the peak of crystalline material. The terms "FTIR" and "IR" denote the analytical method of infrared spectroscopy. The IR-spectra of the samples are recorded as film of a Nujol suspension consisting of approx. 5 mg of sample and approx. 5 mg of Nujol (mineral oil) between two sodium chloride plates (cross section 13 mm) in transmittance with a FTIR- spectrometer. The spectra were recorded in spectral range between 4000 cm"1 and 600 cm"1, resolution 2 cm"1, and 300 coadded scans on a Magna 860 (thermo/Nicolet) equipped with a DTGS detector. The term "Raman" denotes the analytical method of Raman spectroscopy. For recording Raman spectra, the samples were spread on a glass slide. Raman spectra were recorded in the range of 150-3800 cm"1 with an ARAMIS (HoribaJobinYvon) Raman microscope equipped with a Peltier cooled CCD detector, at excitation of 633 nm, a 1200 1/mm grating, a x50 objective and with 3 exposures of 3s, or 7s for weak Raman scatterers. The term "DSC" denotes the analytical method of Differential Scanning Calorimetry. DSC thermograms were recorded using a Mettler-Toledo™ differential scanning calorimeter DSC820, DSC821 or DSC1 with a FRS05 sensor. […]

[8] = non-competitive, refluxed in deionized water at about 95 °C for 3 hours, TGA

COc1ccc(Cl)c(S(=O)(=O)NC(=O)c2cn3cc(C(F)(F)F)cc(Cl)c3n2)c1 [Form TS ({drug1e}), 8-chloro-N-[(2-chloro-5-methoxyphenyl)sulfonyl]-6-(trifluoromethyl)-imidazo[1,2-a]pyridine-2-carboxamide]
crystal form of the resulting material [1, 8]: Form A

COc1ccc(Cl)c(S(=O)(=O)NC(=O)c2cn3cc(C(F)(F)F)cc(Cl)c3n2)c1 [Form D ({drug1d}), 8-chloro-N-[(2-chloro-5-methoxyphenyl)sulfonyl]-6-(trifluoromethyl)-imidazo[1,2-a]pyridine-2-carboxamide]
crystal form of the resulting material [1, 8]: Form A

Nc1nc2cc(-c3ccc4ncc(C(=O)N5CCOCC5)n4c3)ccc2o1 [HCl Pattern 2, (6-(2-aminobenzo[d]oxazol-5-yl)imidazo[1,2-a]pyridin-3-yl)(morpholino)methanone]
uptake at the end of the analysis (GVS) ([2]; 25°C, equating to a tri-hydrate): 10.6 wt% | GVS: XRPD after the experiment ([2]; at the end of the experiment): no significant changes noted by XRPD | GVS ([2]; below 30%RH): Further reversible weight toss below 30%RH may indicate lower stoichiometry hydrate. | GVS ([2]; between 30-40%RH): Reversible dehydration observed between 30-40%RH. | GVS Reversible uptake ([2]; between 40-90%RH): Reversible uptake of ca. 6 wt% between 40-90%RH. | relative humidity to which the form appeared to be stable (GVS) ([2]; dehydration below 30%, rehydration by 40%): 30 %RH | XRPD Result ([3]; Solvent DCM (entry -11)): HCl Pattern 2 | XRPD Result ([3]; Solvent EtOAc (entry -08)): HCl Pattern 2 | XRPD Result ([3]; Solvent EtOH (entry -02)): HCl Pattern 2 | XRPD Result ([3]; Solvent IPA (10% water) (entry -06)): HCl Pattern 2 | XRPD Result ([3]; Solvent IPA (entry -03)): HCl Pattern 2 | XRPD Result ([3]; Solvent MEK (entry -09)): HCl Pattern 2 | XRPD Result ([3]; Solvent MeCN (entry -05)): HCl Pattern 2 | XRPD Result ([3]; Solvent MeOH (entry -01)): HCl Pattern 2 | XRPD Result ([3]; Solvent Nitromethane (entry -12)): HCl Pattern 2 | XRPD Result ([3]; Solvent TBME (entry -10)): HCl Pattern 2 | XRPD Result ([3]; Solvent THF (5% water) (entry -07)): HCl Pattern 2 | XRPD Result ([3]; Solvent THF (entry -04)): HCl Pattern 2 | form by XRPD after polymorph assessment ([3]; freeze-dried material, 20 vols solvent, heat/cool cycles RT to 50°C for three days): known form HCl Pattern 2 | VH-XRPD ([4]; between 45 and 80%RH): No change was noted between 45 and 80%RH | relative humidity to which the form is stable (VH-XRPD) ([4]; complete conversion to HCl Pattern 3 at 0.5%RH, reverted completely by 45%RH): 14 %RH | VH-XRPD ([4]; lowering humidity, below 25%RH to 0.5%RH): The material starts to change below 25%RH, with full conversion to HCl Pattern 3 at 0.5%RH. | VH-XRPD ([4]; raising humidity, 13%RH to 45%RH): At 13%RH the material starts to revert back to HCl Pattern 2 with complete conversion by 45%RH. | heating temperature for conversion to a new pattern (VT-XRPD) ([4]; reverted to partially crystalline HCl Pattern 2 upon cooling in air): above 80 °C | VT-XRPD Heating to 100°C, then cool ([4]; scale-up HCl Pattern 2): Conversion to a new pattern at 80 °C (HCl 3), which returns to less crystalline HCl 2 upon cooling. | VT-XRPD Heating to 140°C ([4]; scale-up HCl Pattern 2): Conversion to HCl Pattern 3 at 80 °C that remains unchanged to 120°C, before losing crystallinity at higher temperature | KF [5]: 15.2 % water, | TGA heat / cool experiments: IC ([5]; Sample heated to 100°C): 1.6 eqsCl | TGA heat / cool experiments: XRPD ([5]; Sample heated to 100°C): Partially crystalline HCl Pattern 2 | TGA heat / cool experiments: IC ([5]; Sample heated to 140°C): 1.7 eqs Cl | TGA heat / cool experiments: XRPD ([5]; Sample heated to 140°C): Partially crystalline HCl Pattern 2 | TGA heat / cool experiments ([5]; Sample heated to 210°C): Sample heated to 210°C, decomposition observed | Stability at 40°C/75%RH ([5]; XRPD, 3 weeks storage): No significant changes observed by XRPD after 3 weeks storage | IC ([5]; as determined): 1.7 eqs Cl (as determined) | KF ([5]; assuming 2 eqs Cl): corresponding to 4.3 eqs water, assuming 2 eqs Cl | IC ([5]; corrected with 15% w/w water content): 2.0 eqs Cl (corrected with 15% w/w water content) | TGA Weight loss ([5]; first step, by 100°C): 8% | solubility thermodynamic ([5]; pH 1, simulated gastric fluid, SGF (pH1.0)): 2800 µg/mL | XRPD (air dried) ([5]; scale-up HCl Pattern 2): New pattern (HCl Pattern 3) | XRPD (vacuum dried) ([5]; scale-up HCl Pattern 2): Crystalline. HCl Pattern 2; also recorded: Slight differences compared to HCl Pattern 2, possibly due to differences in crystallinity | TGA Weight loss ([5]; second step, to 140°C): 2.3% | solubility thermodynamic ([5]; simulated gastric fluid, 0.1N HCl (pH 0.9)): 3500 µg/mL | solubility thermodynamic ([5]; Water (pH 1.6)): 1600 µg/mL | TGA Weight loss ([5]; third step, to 210°C): 8.7%

Nc1nc2cc(-c3ccc4ncc(C(=O)N5CCOCC5)n4c3)ccc2o1 [HCl Pattern 1, (6-(2-aminobenzo[d]oxazol-5-yl)imidazo[1,2-a]pyridin-3-yl)(morpholino)methanone]
stability of the salt form on drying under vacuum at room temperature [4]: partially reverted to the free base

Nc1nc2cc(-c3ccc4ncc(C(=O)N5CCOCC5)n4c3)ccc2o1 [HCl Pattern 3, (6-(2-aminobenzo[d]oxazol-5-yl)imidazo[1,2-a]pyridin-3-yl)(morpholino)methanone]
stability of the salt form on drying under vacuum at room temperature [4]: unstable salt form

COc1ccc(Cl)c(S(=O)(=O)NC(=O)c2cn3cc(C(F)(F)F)cc(Cl)c3n2)c1 [mixed Forms A and B, 8-chloro-N-[(2-chloro-5-methoxyphenyl)sulfonyl]-6-(trifluoromethyl)-imidazo[1,2-a]pyridine-2-carboxamide]
crystal form of the resulting material ([1]; slurry in deionized water stirred at 25 °C for about 168 hours): Form A

Cc1ccc(S(=O)(=O)O)cc1.Nc1[nH]ncc1-c1cc(Cl)ccc1Oc1cc(F)c(S(=O)(=O)Nc2cscn2)cc1Cl [tosylate salt, 4-[2-(5-amino-1 H-pyrazol-4-yl)-4-chlorophenoxy]-5-chloro-2-fluoro-N-(1,3-thiazol-4-yl)benzenesulfonamide tosylate]
aqueous solubility [6]: good aqueous solubility | stability with regard to disassociation ([6]; compared with other salts): greater stability | chemical stability ([6]; in particular with regard to formulation and storage): improved chemical stability over the free base

COc1ccc(Cl)c(S(=O)(=O)NC(=O)c2cn3cc(C(F)(F)F)cc(Cl)c3n2)c1 [Form B ({drug1b}), 8-chloro-N-[(2-chloro-5-methoxyphenyl)sulfonyl]-6-(trifluoromethyl)-imidazo[1,2-a]pyridine-2-carboxamide]
crystal form of the resulting material [1, 8]: Form A

Cc1onc(-c2ccc(F)cc2)c1COc1ccc(C(=O)N2CCS(=O)(=O)CC2)cn1 [Form E ({drug4e}), (1,1-dioxo-1lambda6-thiomorpholin-4-yl)-{6-[3-(4-fluoro-phenyl)-5-methyl-isoxazol-4-ylmethoxy]-pyridin-3-yl]-methanone]
humidity at which rapid reconversion into Form B is observed [7]: > 5 rH | thermodynamic stability of the solid form [7]: only limited stability at ambient conditions

Source: EP2792360A1, “(1aR,12bS)-8-cyclohexyl-11-fluoro-N-((1-methylcyclopropyl)sulfonyl)-1a-((3-methyl-3,8-diazabicyclo[3.2.1]oct-8-yl)carbonyl)-1,1a,2,2b-tetrahydrocyclopropa[d]indolo[2,1-a][2]benzazepine-5-carboxamide for use in treating HCV” (IP Gesellschaft für Management mbH, priority 2013, dated 2014)
